# Values quoted from earlier work in patent US5663151A, “Sulfated α-glycolipid derivatives as cell adhesion inhibitors” (Bristol-Myers Squibb Company, priority 1995, dated 1997).
# How the values were obtained:
# P-selectin [1] = conditions: cells grown in the presence of sodium selenate; cited from earlier work
# P-selectin [2] = conditions: Larsen et al.; Erbe et al.; Aruffo et al.; cited from earlier work
# P-selectin [3] = conditions: Skinner et al.; cited from earlier work
Molecule,P-selectin has been shown to bind (P-selectin [2]),other results
O=[Se](=O)(O)O [sodium selenate],,binding of P-selectin to myeloid cell lines (P-selectin [1]): can be inhibited
CC(=O)N[C@H]1C(O)O[C@H](CO)[C@@H](O[C@@H]2O[C@H](CO)[C@H](O)[C@H](O)[C@H]2O)[C@@H]1O[C@@H]1O[C@@H](C)[C@@H](O)[C@@H](O)[C@@H]1O (stereo partly shown) [Le^x],shown to bind,
sialyl-Le^x,shown to bind,
dextran sulfate,,inhibit P-selectin mediated adhesion (P-selectin [3]): inhibit P-selectin mediated adhesion
